Data reported in US20260207614A1, “IRAK4 DEGRADERS AND USES THEREOF” (Kymera Therapeutics, Inc., priority 2022, published 2026).
“Also recorded” adds a separate entry of the source.

What was measured:
CYP3A4 = CYP3A4 (Homo sapiens, UniProt P08684); assay: In vitro drug-drug interaction and metabolism studies, CYP3A4; assay type: in vitro ADME
Excerpt: (§1) Metabolites generated in liver microsomes from humans were also detected in those from rat, dog, and monkey. In the in vitro drug-drug interaction studies.

[1] = system: disease-relevant cytokines ex vivo; assay: Phase 1 Part C ex vivo cytokine stimulation assays; assay type: in vivo, human
Excerpt: Plots show median of the maximum change from baseline between Days 7-14 in MAD3 and Days 14-28 in Part C.
IL-36, IFN-g, IL-8, IL-5, GZMB and COX2 in HS and IL-5, IL-31, NLRP3, CXCL1 and IL-2RB in AD (FIG. 25A-B).

[2] = molecular target: T1, breast cancer resistance protein (BCRP) (Homo sapiens, UniProt Q9UNQ0); assay: BCRP substrate and efflux inhibition in vitro; assay type: in vitro ADME
T1 sequence (Q9UNQ0 1-655): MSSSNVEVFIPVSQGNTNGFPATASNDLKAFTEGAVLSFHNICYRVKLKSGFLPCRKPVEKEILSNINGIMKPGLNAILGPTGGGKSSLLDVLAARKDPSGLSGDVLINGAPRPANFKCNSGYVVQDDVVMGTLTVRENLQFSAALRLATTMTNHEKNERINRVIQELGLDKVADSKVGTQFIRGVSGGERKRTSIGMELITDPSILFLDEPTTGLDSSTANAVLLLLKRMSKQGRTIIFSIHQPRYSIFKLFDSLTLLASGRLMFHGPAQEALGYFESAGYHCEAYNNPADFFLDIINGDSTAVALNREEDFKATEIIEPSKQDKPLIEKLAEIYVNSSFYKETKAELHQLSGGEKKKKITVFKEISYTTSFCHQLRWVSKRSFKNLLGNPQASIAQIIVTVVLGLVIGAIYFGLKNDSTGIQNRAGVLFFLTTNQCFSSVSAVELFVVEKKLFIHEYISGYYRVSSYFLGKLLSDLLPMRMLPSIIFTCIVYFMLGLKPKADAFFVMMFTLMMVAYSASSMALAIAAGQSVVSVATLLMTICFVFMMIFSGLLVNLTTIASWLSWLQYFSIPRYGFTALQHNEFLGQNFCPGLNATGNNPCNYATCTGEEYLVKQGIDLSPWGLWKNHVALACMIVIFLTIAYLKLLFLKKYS
Excerpt: (§2) In in vivo pharmacokinetic (PK) studies conducted in rats, dogs, and monkeys.
as §1

IRAK4 [3] = molecular target: T2, IRAK4 (Rattus norvegicus, UniProt A0A8I6G1H3); assay: In vitro IRAK4 degradation, rat splenocytes; assay type: cell-based; conditions: read-out: DC50 (IRAK4 degradation)
T2 construct: endogenous in cells; host or cells: rat splenocytes
T2 sequence (A0A8I6G1H3 1-461): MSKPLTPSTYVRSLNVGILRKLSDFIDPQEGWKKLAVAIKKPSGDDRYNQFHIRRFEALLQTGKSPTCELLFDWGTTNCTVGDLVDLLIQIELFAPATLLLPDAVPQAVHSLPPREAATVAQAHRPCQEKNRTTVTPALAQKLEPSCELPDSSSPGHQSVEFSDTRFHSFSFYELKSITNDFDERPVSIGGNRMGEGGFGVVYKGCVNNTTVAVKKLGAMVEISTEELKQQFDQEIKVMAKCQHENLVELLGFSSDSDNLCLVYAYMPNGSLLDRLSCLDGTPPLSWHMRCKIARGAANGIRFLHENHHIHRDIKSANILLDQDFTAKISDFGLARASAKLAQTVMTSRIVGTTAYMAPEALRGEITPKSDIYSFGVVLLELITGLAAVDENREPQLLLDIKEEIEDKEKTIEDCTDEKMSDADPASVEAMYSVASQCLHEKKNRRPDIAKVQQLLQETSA

[4] = system: R848 (TLR7)-stimulated cytokine induction in whole blood; assay: Phase 1 SAD ex vivo R848-stimulated cytokine induction in whole blood; parameters: species or system human
[5] = Phase 1 SAD safety and tolerability; assay type: in vivo, human
Excerpt: Part A: Part A is a double-blind, randomized, placebo-controlled, SAD, sequential group study in 56 adult HVs, divided in 7 cohorts of eight HVs each. Seven ascending single doses (1 dose level per cohort) will be investigated. One or more additional cohorts may be added, as needed.
• Treatment-emergent (serious) adverse events ([S]AEs) • Concomitant medication • Clinical laboratory tests • Hematology • Coagulation • Chemistry • Urinalysis and urine microscopy • Vital signs • Pulse Rate (bpm) • Systolic blood pressure (BP) (mm Hg) • Diastolic BP (mm Hg) • Respiratory rate • Temperature • Safety electrocardiogram and Holter monitoring • Heart Rate (bpm). PR, QRS, QT, QTcF
All data will be fully listed.

IRAK4 [6] = assay: In vitro IRAK4 degradation, monkey PBMCs; assay type: cell-based
[7] = system: LPS (TLR4)-stimulated cytokine induction in whole blood; assay: Phase 1 SAD ex vivo LPS-stimulated cytokine induction in whole blood; parameters: species or system human; conditions: 24-48 hours, Cohort 7
[8] = Excretion study in bile duct-cannulated (BDC) rats; assay type: in vivo
[9] = Distribution studies in rats; assay type: in vivo
Excerpt: as §2

[10] = R848, whole blood, 24-48 hours, Cohort 7
[11] = blinded SAD, study treatment related, per Investigator

Chain of CYP3A4 (P08684 whole entry): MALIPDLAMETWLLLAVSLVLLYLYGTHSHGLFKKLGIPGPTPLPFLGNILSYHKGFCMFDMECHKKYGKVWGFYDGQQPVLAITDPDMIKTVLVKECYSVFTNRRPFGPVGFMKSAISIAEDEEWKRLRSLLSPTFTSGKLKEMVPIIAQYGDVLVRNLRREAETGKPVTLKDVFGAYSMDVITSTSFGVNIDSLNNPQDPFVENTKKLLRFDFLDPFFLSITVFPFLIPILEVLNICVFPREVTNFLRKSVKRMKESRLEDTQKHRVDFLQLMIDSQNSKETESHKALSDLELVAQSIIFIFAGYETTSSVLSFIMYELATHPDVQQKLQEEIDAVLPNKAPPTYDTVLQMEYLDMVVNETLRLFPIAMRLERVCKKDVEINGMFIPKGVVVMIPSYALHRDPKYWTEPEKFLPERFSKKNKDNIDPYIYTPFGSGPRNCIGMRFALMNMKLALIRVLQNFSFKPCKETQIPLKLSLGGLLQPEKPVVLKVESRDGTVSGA

Cn1c(=O)n([C@@H]2CCC(=O)NC2=O)c2cccc(C#CCOC3CCN(C[C@H]4CC[C@H](n5cc(NC(=O)c6cnn7ccc(N8C[C@H]9C[C@@H]8CO9)nc67)c(C(F)F)n5)CC4)CC3)c21 [Compound A, 5-((1R,4R)-2-oxa-5-azabicyclo[2.2.1]heptan-5-yl)-N-(3-(difluoromethyl)-1-((1r,4R)-4-((4-((3-(1-(2,6-dioxopiperidin-3-yl)-3-methyl-2-oxo-2,3-dihydro-1H-benzo[d]imidazol-4-yl)prop-2-yn-1-yl)oxy)piperidin-1-yl)methyl)cyclohexyl)-1H-pyrazol-4-yl)pyrazolo[1,5-a]pyrimidine-3-carboxamide]
metabolizing enzyme (CYP3A4): primarily metabolized by CYP3A4 | time dependent inhibition (TDI) of CYP3A4 (CYP3A4; in vitro): potential time dependent inhibition (TDI) | inhibition of disease-relevant cytokines ex vivo, maximum ([1]; AD patients): up to 98% | cytokine inhibition, IFN-γ ([1]; AD patients, FIG. 23): up to 95% | cytokine inhibition, IL-1β ([1]; AD patients, FIG. 23): up to 81% | cytokine inhibition, IL-6 ([1]; AD patients, FIG. 23): up to 74% | cytokine inhibition, IL-8 ([1]; AD patients, FIG. 23): up to 85% | cytokine inhibition, IL-10 ([1]; AD patients, FIG. 23): up to 98% | cytokine inhibition, IL-12 ([1]; AD patients, FIG. 23): up to 76% | cytokine inhibition, IL-17 ([1]; AD patients, FIG. 23): up to 83% | cytokine inhibition, IL-23 ([1]; AD patients, FIG. 23): up to 95% | cytokine inhibition, TNF-α ([1]; AD patients, FIG. 23): up to 74% | inhibition of disease-relevant cytokines ex vivo, maximum ([1]; HS patients): up to 84% | cytokine inhibition, IFN-γ ([1]; HS patients, FIG. 23): up to 76% | cytokine inhibition, IL-1β ([1]; HS patients, FIG. 23): up to 57% | cytokine inhibition, IL-6 ([1]; HS patients, FIG. 23): up to 50% | cytokine inhibition, IL-8 ([1]; HS patients, FIG. 23): up to 59% | cytokine inhibition, IL-10 ([1]; HS patients, FIG. 23): up to 52% | cytokine inhibition, IL-12 ([1]; HS patients, FIG. 23): up to 84% | cytokine inhibition, IL-17 ([1]; HS patients, FIG. 23): up to 46% | cytokine inhibition, TNF-α ([1]; HS patients, FIG. 23): up to 54% | inhibition of 9 disease-relevant cytokines ex vivo, maximum ([1]; HS/AD patients, median of maximum change from baseline Days 14-28): up to 98% | inhibition of BCRP efflux [2]: inhibited BCRP efflux | substrate of breast cancer resistance protein (BCRP) [2]: substrate | DC50 (IRAK4 [3]): < 10 nM | Mean Maximum Percent Change from Baseline in ex vivo IFNγ induction [4, 10]: −97%^2 | Mean Maximum Percent Change from Baseline in ex vivo IL1β induction [4, 10]: −92%^1 | Mean Maximum Percent Change from Baseline in ex vivo IL6 induction [4, 10]: −88%^1 | Mean Maximum Percent Change from Baseline in ex vivo IL8 induction [4, 10]: −54%^ | Mean Maximum Percent Change from Baseline in ex vivo IL10 induction [4, 10]: −89%^1 | Mean Maximum Percent Change from Baseline in ex vivo IL12 induction [4, 10]: −93%^1 | Mean Maximum Percent Change from Baseline in ex vivo IL17 induction [4, 10]: −79%^1 | Mean Maximum Percent Change from Baseline in ex vivo TNFα induction [4, 10]: −88%^2 | mean maximum ex vivo cytokine inhibition ([4]; SAD, R848- or LPS-mediated induction, whole blood, 24-48 h post-dose): up to 97% | inhibition of R848 or LPS induction of 8 different pro-inflammatory cytokines ([4]; SAD, whole blood, maxima across cytokines): 79-97% | Abdominal pain, Severity ([5]; Cohort SAD 5): Mild | Diarrhea, Severity ([5]; Cohort SAD 5): Mild | Headache, Severity ([5]; Cohort SAD 5): Mild (x2) | Palpitations, Severity ([5]; Cohort SAD 5): Mild | Headache, Severity ([5]; Cohort SAD 5, SAD 5 FE, SAD 6): Moderate (x3) | Diarrhea, Severity ([5]; Cohort SAD 5 FE): Mild | Nausea, Severity ([5]; Cohort SAD 5 FE): Mild | Vomiting, Severity ([5]; Cohort SAD 5 FE): Mild (x2) | Muscle weakness, Severity ([5]; Cohort SAD 6): Mild | Myalgia, Severity ([5]; Cohort SAD 6): Mild | Nausea, Severity ([5]; Cohort SAD 6): Mild (x2) | ECG changes ([5]; SAD): No significant ECG changes | QTcF prolongation ([5]; SAD): no clinically significant QTcF prolongation | serious adverse events ([5]; SAD): no serious adverse events; also recorded: No SAEs | AST elevation ([5]; SAD 5, n=1, resolution ~Day 21): 3.8 ×ULN | ALT elevation ([5]; SAD 5, n=1, slow resolution to baseline): 2.5 ×ULN | Abdominal pain, #AEs (subjects) [5, 11]: 1 | Diarrhea, #AEs (subjects) [5, 11]: 2 (2) | Headache, #AEs (subjects) [5, 11]: 5 (4) | Muscle weakness, #AEs (subjects) [5, 11]: 1 | Myalgia, #AEs (subjects) [5, 11]: 1 | Nausea, #AEs (subjects) [5, 11]: 3 (3) | Palpitations, #AEs (subjects) [5, 11]: 1 | Vomiting, #AEs (subjects) [5, 11]: 2 (1) | safety and tolerability ([5]; single doses, healthy volunteers): safe and well-tolerated | DC50 (IRAK4 [6]): […] | Mean Maximum Percent Change from Baseline in ex vivo IFNγ induction [7]: −42%^ | Mean Maximum Percent Change from Baseline in ex vivo IL1β induction [7]: −68%^1 | Mean Maximum Percent Change from Baseline in ex vivo IL6 induction [7]: −62%^1 | Mean Maximum Percent Change from Baseline in ex vivo IL8 induction [7]: −81%^1 | Mean Maximum Percent Change from Baseline in ex vivo IL10 induction [7]: −83%^1 | Mean Maximum Percent Change from Baseline in ex vivo IL12 induction [7]: −35%^2 | Mean Maximum Percent Change from Baseline in ex vivo IL17 induction [7]: −43%^2 | Mean Maximum Percent Change from Baseline in ex vivo TNFα induction [7]: −42%^2 | biliary and intestinal excretion as parent drug [8]: minor to moderate | renal clearance [8]: negligible | penetration into the central nervous system (CNS) [9]: […] | tissue distribution [9]: extensively distributed into tissues
